From the kinase profiling compilation of Christmann-Franck et al. (2016)

Experiments:
Experiment in all cases: KINOMEscan competition binding
Settings in all cases: compound 10.0 µM
TYRO3 (human) = TYRO3 (human) (UniProt Q06418)
MAP2K4 (human) = MAP2K4 (human) (UniProt P45985)
CPK1 (P.falciparum) = test system: CPK1 (P.falciparum)
EPHB6 (human) = EPHB6 (human) (UniProt O15197)
TNK2 (human) = TNK2 (human) (UniProt Q07912)
PAK7 (human) = PAK7 (human) (UniProt Q9P286)
MKNK2 (human) = MKNK2 (human) (UniProt Q9HBH9)
MAP3K4 (human) = MAP3K4 (human) (UniProt Q9Y6R4)
FLT1 (human) = FLT1 (human) (UniProt P17948)
HIPK4 (human) = HIPK4 (human) (UniProt Q8NE63)
YES1 (human) = YES1 (human) (UniProt P07947)
MAPK8 (human) = MAPK8 (human) (UniProt P45983)
MAPK8 (human), sequence (P45983 whole entry, looked up): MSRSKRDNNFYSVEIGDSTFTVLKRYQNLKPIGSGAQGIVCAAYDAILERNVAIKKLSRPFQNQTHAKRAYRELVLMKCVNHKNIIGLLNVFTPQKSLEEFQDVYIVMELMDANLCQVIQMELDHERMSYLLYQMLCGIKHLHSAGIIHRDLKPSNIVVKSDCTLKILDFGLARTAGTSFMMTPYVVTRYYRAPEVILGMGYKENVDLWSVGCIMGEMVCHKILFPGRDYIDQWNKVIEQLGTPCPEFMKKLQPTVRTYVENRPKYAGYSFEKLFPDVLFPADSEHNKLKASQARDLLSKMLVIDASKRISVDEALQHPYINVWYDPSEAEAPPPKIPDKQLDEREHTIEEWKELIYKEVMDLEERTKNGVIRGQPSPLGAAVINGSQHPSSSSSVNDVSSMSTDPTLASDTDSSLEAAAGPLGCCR

DSTYK (human) = DSTYK (human) (UniProt Q6XUX3)
DSTYK (human), sequence (Q6XUX3 whole entry, looked up): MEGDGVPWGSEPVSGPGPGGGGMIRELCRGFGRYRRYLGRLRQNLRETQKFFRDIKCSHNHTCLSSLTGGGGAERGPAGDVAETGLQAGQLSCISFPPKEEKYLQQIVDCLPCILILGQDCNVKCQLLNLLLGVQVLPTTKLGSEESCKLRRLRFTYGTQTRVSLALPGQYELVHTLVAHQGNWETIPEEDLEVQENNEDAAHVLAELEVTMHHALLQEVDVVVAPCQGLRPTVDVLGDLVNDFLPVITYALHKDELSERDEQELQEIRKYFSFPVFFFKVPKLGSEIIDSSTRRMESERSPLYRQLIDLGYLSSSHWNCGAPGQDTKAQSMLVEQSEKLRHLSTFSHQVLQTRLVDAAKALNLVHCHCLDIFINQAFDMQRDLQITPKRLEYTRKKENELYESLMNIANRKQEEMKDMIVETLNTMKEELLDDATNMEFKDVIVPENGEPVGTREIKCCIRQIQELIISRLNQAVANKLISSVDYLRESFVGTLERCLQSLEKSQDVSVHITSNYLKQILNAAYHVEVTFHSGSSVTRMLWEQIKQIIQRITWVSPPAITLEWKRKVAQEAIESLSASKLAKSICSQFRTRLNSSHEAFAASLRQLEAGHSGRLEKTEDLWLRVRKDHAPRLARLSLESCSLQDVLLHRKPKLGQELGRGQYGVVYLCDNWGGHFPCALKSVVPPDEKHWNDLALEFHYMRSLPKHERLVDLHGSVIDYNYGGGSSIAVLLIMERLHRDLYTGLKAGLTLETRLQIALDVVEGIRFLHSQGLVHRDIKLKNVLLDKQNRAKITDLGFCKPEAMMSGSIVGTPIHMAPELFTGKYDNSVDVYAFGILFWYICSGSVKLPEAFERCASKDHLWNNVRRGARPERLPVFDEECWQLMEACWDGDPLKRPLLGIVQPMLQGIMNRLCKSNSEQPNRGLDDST

FLT4 (human) = FLT4 (human) (UniProt P35916)
FLT4 (human), sequence (P35916 whole entry, looked up): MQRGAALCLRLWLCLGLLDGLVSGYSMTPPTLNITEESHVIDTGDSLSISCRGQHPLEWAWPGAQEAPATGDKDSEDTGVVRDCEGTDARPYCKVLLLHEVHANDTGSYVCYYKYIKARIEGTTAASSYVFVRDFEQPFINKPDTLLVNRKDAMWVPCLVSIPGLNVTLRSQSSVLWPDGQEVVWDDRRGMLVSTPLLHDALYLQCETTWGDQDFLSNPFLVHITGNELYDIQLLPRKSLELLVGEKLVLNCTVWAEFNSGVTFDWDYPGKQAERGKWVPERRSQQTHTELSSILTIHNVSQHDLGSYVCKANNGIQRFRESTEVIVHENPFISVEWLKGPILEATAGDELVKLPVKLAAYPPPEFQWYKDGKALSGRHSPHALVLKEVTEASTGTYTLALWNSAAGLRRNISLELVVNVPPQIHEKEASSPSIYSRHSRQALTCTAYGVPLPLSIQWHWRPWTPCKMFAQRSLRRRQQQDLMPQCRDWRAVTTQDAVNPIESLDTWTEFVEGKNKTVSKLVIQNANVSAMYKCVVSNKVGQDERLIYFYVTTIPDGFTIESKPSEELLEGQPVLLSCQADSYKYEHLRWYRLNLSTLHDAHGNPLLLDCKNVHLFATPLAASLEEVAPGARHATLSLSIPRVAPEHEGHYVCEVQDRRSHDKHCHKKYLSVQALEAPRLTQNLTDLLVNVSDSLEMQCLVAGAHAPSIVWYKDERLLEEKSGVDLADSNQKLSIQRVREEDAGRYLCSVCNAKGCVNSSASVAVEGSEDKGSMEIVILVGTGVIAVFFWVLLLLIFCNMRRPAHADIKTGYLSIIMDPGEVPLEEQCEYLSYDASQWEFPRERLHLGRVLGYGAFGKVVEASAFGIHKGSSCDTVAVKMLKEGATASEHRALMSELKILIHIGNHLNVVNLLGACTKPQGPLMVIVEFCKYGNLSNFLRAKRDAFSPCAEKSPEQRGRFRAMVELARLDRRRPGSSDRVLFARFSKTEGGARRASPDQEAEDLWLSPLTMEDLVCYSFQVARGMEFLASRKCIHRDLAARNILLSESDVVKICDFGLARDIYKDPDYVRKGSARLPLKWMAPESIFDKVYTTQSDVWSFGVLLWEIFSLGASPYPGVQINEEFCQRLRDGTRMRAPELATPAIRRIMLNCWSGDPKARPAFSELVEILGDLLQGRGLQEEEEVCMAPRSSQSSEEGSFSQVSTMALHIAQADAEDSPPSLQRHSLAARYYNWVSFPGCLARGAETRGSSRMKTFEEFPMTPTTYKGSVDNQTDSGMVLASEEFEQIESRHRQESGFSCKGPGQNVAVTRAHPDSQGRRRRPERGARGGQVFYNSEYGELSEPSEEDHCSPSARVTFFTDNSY

ACVR2A (human) = ACVR2A (human) (UniProt P27037)
CDKL1 (human) = CDKL1 (human) (UniProt Q00532)
RIPK2 (human) = RIPK2 (human) (UniProt O43353)
RIPK2 (human), sequence (O43353 whole entry, looked up): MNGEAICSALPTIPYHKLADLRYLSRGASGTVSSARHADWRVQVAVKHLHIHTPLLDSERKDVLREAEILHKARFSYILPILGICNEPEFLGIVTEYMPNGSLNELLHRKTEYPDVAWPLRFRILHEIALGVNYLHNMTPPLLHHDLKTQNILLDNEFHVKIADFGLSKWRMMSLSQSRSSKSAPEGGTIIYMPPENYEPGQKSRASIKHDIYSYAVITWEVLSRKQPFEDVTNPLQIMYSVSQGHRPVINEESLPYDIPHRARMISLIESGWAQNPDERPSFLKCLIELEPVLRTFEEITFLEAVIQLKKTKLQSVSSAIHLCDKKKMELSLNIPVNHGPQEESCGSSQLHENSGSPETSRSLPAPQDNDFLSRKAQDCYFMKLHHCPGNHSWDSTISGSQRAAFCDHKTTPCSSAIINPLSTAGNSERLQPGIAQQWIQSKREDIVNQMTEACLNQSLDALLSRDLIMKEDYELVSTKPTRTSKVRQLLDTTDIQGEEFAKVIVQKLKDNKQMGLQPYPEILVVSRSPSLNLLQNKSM

LRRK2 (human) = LRRK2 (human) (UniProt Q5S007)
SRPK2 (human) = SRPK2 (human) (UniProt P78362)
SRPK2 (human), sequence (P78362 whole entry, looked up): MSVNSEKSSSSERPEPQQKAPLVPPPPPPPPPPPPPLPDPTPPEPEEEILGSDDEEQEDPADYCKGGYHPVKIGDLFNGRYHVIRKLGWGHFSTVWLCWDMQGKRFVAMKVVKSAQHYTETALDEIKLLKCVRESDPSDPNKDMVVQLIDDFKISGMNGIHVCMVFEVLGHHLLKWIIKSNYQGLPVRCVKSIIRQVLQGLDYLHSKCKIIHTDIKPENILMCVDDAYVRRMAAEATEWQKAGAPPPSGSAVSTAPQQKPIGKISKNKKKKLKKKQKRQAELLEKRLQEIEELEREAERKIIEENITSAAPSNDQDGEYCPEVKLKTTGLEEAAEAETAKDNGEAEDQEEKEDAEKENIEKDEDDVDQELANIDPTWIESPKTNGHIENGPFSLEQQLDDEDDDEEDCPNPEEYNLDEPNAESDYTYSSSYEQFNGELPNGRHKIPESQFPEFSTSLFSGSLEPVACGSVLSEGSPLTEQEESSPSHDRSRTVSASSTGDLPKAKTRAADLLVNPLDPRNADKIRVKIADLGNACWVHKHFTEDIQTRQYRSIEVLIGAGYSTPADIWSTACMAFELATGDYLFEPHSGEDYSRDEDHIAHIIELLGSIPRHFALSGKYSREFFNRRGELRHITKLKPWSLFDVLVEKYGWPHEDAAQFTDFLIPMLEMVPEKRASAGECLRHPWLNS

PRKD1 (human) = PRKD1 (human) (UniProt Q15139)
RIOK1 (human) = RIOK1 (human) (UniProt Q9BRS2)
ANKK1 (human) = ANKK1 (human) (UniProt Q8NFD2)
AURKC (human) = AURKC (human) (UniProt Q9UQB9)
[1] = test system: EGFR (human), P00533 [A750P; 747-749 del]
PRKAA2 (human) = PRKAA2 (human) (UniProt P54646)
PIK3CG (human) = PIK3CG (human) (UniProt P48736)
MAP2K2 (human) = MAP2K2 (human) (UniProt P36507)
NEK9 (human) = NEK9 (human) (UniProt Q8TD19)
MAP2K7 (human) = MAP2K7 (human) (UniProt O14733)
MAPK3 (human) = MAPK3 (human) (UniProt P27361)
MAPK3 (human), sequence (P27361 whole entry, looked up): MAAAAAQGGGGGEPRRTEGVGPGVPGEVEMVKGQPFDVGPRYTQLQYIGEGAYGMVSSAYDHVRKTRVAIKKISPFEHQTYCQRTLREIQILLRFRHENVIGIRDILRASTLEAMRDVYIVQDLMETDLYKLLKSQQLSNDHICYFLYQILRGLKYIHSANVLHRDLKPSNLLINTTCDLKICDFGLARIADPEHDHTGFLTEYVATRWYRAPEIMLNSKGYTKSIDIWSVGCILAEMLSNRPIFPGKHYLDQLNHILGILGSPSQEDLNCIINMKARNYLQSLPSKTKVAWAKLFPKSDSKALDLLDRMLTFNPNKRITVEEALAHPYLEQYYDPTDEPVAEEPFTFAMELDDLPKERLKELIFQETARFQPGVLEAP

CAMK2D (human) = CAMK2D (human) (UniProt Q13557)
CAMK2D (human), sequence (Q13557 whole entry, looked up): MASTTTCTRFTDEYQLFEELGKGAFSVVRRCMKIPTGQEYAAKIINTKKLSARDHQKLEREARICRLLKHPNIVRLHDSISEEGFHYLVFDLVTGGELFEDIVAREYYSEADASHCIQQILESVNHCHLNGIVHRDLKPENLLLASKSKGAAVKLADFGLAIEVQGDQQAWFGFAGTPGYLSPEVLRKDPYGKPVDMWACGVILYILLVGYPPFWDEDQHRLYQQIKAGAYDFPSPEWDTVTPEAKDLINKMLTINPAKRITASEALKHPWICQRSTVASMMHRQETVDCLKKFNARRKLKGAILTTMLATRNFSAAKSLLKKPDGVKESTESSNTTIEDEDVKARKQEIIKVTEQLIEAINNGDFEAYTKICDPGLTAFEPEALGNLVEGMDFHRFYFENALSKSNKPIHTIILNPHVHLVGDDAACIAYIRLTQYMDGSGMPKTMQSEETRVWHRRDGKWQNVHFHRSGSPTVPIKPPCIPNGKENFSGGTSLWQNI

PIK3C2G (human) = PIK3C2G (human) (UniProt O75747)
KDR (human) = KDR (human) (UniProt P35968)
LIMK2 (human) = LIMK2 (human) (UniProt P53671)
PRKAA1 (human) = PRKAA1 (human) (UniProt Q13131)
PRKCI (human) = PRKCI (human) (UniProt P41743)
IRAK1 (human) = IRAK1 (human) (UniProt P51617)
DDR1 (human) = DDR1 (human) (UniProt Q08345)
DYRK1B (human) = DYRK1B (human) (UniProt Q9Y463)
PKN1 (human) = PKN1 (human) (UniProt Q16512)

Structure (SMILES)	kinase still bound, per cent of control (TYRO3 (human))	kinase still bound, per cent of control (MAP2K4 (human))	kinase still bound, per cent of control (CPK1 (P.falciparum))	kinase still bound, per cent of control (EPHB6 (human))	kinase still bound, per cent of control (TNK2 (human))	kinase still bound, per cent of control (PAK7 (human))	kinase still bound, per cent of control (MKNK2 (human))	kinase still bound, per cent of control (MAP3K4 (human))	kinase still bound, per cent of control (FLT1 (human))	kinase still bound, per cent of control (HIPK4 (human))	kinase still bound, per cent of control (YES1 (human))	kinase still bound, per cent of control (MAPK8 (human))	kinase still bound, per cent of control (DSTYK (human))	kinase still bound, per cent of control (FLT4 (human))	kinase still bound, per cent of control (ACVR2A (human))	kinase still bound, per cent of control (CDKL1 (human))	kinase still bound, per cent of control (RIPK2 (human))	kinase still bound, per cent of control (LRRK2 (human))	kinase still bound, per cent of control (SRPK2 (human))	kinase still bound, per cent of control (PRKD1 (human))	further results
CC1=C(C(=O)Nc2cc3cn[nH]c3cc2F)C(c2ccc(C(F)(F)F)cc2)CC(=O)N1 (centres undefined)	100%	71%	82%	68%	88%	79%	62%	97%	77%	86%	65%	85%	69%	94%	88%	78%	77%	100%	100%	76%	kinase still bound, per cent of control (RIOK1 (human)): 100%; kinase still bound, per cent of control (ANKK1 (human)): 97%; kinase still bound, per cent of control (AURKC (human)): 33%; kinase still bound, per cent of control [1]: 36%; kinase still bound, per cent of control (PRKAA2 (human)): 25%; kinase still bound, per cent of control (PIK3CG (human)): 88%; kinase still bound, per cent of control (MAP2K2 (human)): 64%; kinase still bound, per cent of control (NEK9 (human)): 89%; kinase still bound, per cent of control (MAP2K7 (human)): 80%; kinase still bound, per cent of control (MAPK3 (human)): 53%; kinase still bound, per cent of control (CAMK2D (human)): 100%; kinase still bound, per cent of control (PIK3C2G (human)): 52%; kinase still bound, per cent of control (KDR (human)): 88%; kinase still bound, per cent of control (LIMK2 (human)): 89%; kinase still bound, per cent of control (PRKAA1 (human)): 13%; kinase still bound, per cent of control (PRKCI (human)): 72%; kinase still bound, per cent of control (IRAK1 (human)): 90%; kinase still bound, per cent of control (DDR1 (human)): 100%; kinase still bound, per cent of control (DYRK1B (human)): 84%; kinase still bound, per cent of control (PKN1 (human)): 19%
CCN1CCN(Cc2ccc(NC(=O)c3ccc(C)c(/C=C/c4cnc5[nH]ccc5c4OC)c3)cc2C(F)(F)F)CC1	100%	76%	0.2%	1.8%	0.8%	100%	2.7%	66%	2.4%	5.5%	0.65%	19%	36%	0.2%	100%	61%	1.8%	12%	28%	3.5%	kinase still bound, per cent of control (RIOK1 (human)): 0.75%; kinase still bound, per cent of control (ANKK1 (human)): 5.7%; kinase still bound, per cent of control (AURKC (human)): 1.5%; kinase still bound, per cent of control [1]: 1.1%; kinase still bound, per cent of control (PRKAA2 (human)): 39%; kinase still bound, per cent of control (PIK3CG (human)): 96%; kinase still bound, per cent of control (MAP2K2 (human)): 58%; kinase still bound, per cent of control (NEK9 (human)): 8.4%; kinase still bound, per cent of control (MAP2K7 (human)): 1.4%; kinase still bound, per cent of control (MAPK3 (human)): 100%; kinase still bound, per cent of control (CAMK2D (human)): 100%; kinase still bound, per cent of control (PIK3C2G (human)): 82%; kinase still bound, per cent of control (KDR (human)): 2.6%; kinase still bound, per cent of control (LIMK2 (human)): 2.9%; kinase still bound, per cent of control (PRKAA1 (human)): 20%; kinase still bound, per cent of control (PRKCI (human)): 100%; kinase still bound, per cent of control (IRAK1 (human)): 26%; kinase still bound, per cent of control (DDR1 (human)): 0.15%; kinase still bound, per cent of control (DYRK1B (human)): 27%; kinase still bound, per cent of control (PKN1 (human)): 16%
N#C/C(=C1/Nc2ccccc2S1)c1ccnc(NCCc2cccnc2)n1	100%	1.1%	4.2%	3.2%	91%	76%	0.5%	100%	100%	42%	81%	0%	51%	100%	86%	45%	81%	100%	86%	100%	kinase still bound, per cent of control (RIOK1 (human)): 30%; kinase still bound, per cent of control (ANKK1 (human)): 5.6%; kinase still bound, per cent of control (AURKC (human)): 67%; kinase still bound, per cent of control (PRKAA2 (human)): 100%; kinase still bound, per cent of control (PIK3CG (human)): 50%; kinase still bound, per cent of control (MAP2K2 (human)): 17%; kinase still bound, per cent of control (NEK9 (human)): 90%; kinase still bound, per cent of control (MAP2K7 (human)): 100%; kinase still bound, per cent of control (MAPK3 (human)): 100%; kinase still bound, per cent of control (CAMK2D (human)): 64%; kinase still bound, per cent of control (PIK3C2G (human)): 8.8%; kinase still bound, per cent of control (KDR (human)): 100%; kinase still bound, per cent of control (LIMK2 (human)): 96%; kinase still bound, per cent of control (PRKAA1 (human)): 100%; kinase still bound, per cent of control (PRKCI (human)): 80%; kinase still bound, per cent of control (IRAK1 (human)): 6.2%; kinase still bound, per cent of control (DDR1 (human)): 100%; kinase still bound, per cent of control (DYRK1B (human)): 23%; kinase still bound, per cent of control (PKN1 (human)): 95%
